Experiments:
[1] = test system: neutrophils; test: Microfluidic neutrophil chemotaxis assay, healthy donor whole blood (finger prick, venous) and isolated neutrophils; format: cell-based, human; details: for neutrophils recruited from finger prick whole blood (count): average of 16 attractant chambers
Experimental: Capillary blood (50 μL) was collected by pricking a finger of healthy volunteers. The blood was then pipetted into an eppendorf tube containing a mixed solution of HBSS media, heparin anti-coagulant (1.65 USP/50 μL of blood), and Hoescht stain (10 μL, 32.4 μM). […] Louis, Mo.) or Leukotriene B4 (LTB4) (Caymen Chemicals, Ann Arbor, Mich.) [100 nM] immediately after the PDMS donut-shaped device was bonded to the well plate. The chemoattractant solution also contained fibronectin [25 nM] (Sigma-Aldrich, St. Louis, Mo.) to promote neutrophil surface adhesion. The chemoattractant was pipetted into the whole blood loading chamber (WBLC) and directly around the circumference of the device. […] Afterwards, the central whole-blood loading chamber and the outside region surrounding the donut were washed thoroughly with Phosphate Buffered Saline (PBS) in each well to wash away excess chemoattractant. The wells of the plate were then filled with RPMI 1640 media and allowed to sit for a period of 15 minutes to generate stable chemoattractant gradients. […] Capillary blood (50 μL) was collected by pricking a finger of healthy volunteers. The blood was then pipetted into an eppendorf tube containing a mixed solution of HBSS media, heparin anti-coagulant (1.65 USP/50 μL of blood), and Hoescht stain (10 μL, 32.4 μM). […] For venous blood samples, 10 mL of peripheral blood was drawn from a health volunteer into tubes containing 33 US […] (Vacutainer, Becton Dickinson, Franklin Lakes, N.J.). […] To compare the whole blood results with neutrophil migration from an isolated sample, we also isolated human neutrophils from whole blood using HetaSep followed by the EasySep Human Neutrophil Enrichment Kits (STEMCELL Technologies Inc. Vancouver, Canada) following the manufacturer's protocol. […] Louis, Mo.) at a density of 40,000 cells/μL and kept at 37° C. cell until devices were properly primed. […] Directionality of primed neutrophils was quantified by counting the number of cells that followed the chemotactic gradient and turned at the bifurcation toward the chemoattractant chamber as opposed to the number of cells that exited the device to the peripheral region. Cell velocities were calculated using Image J (NIH) and data analysis with GraphPad Prism. Neutrophil migration toward different attractants (fMLP and LTB4) was also examined. […] The concentrations of the three different chemoattractants were varied from 10 nM to 50 nM to 100 nM. Solutions containing fibronectin [25 nM] and exclusive of fibronection were prepared. Finger prick blood and venous blood were obtained as described above in Example 3.

[2] = test system: mouse neutrophils; test: Inter-species microfluidic neutrophil chemotaxis from one droplet of whole blood: C57BL/6 and Sv129S6 mice; format: cell-based; details: for directionality of Sv129S6 mouse neutrophils compared with humans: Sv129S6 mouse versus human
Experimental: (§1) The microfluidic device to study mouse, rat and human neutrophil chemotaxis from one droplet of whole blood was designed with three main components: focal chemoattractant chambers (FCCs) (200×200 μm), a central whole-blood loading chamber, and migration channels containing RBC filtering regions. The filter for each migration channel included 10 short channels (Length ˜75 μm) with a 3.5 μm narrowing region (‘pinch’) connected horizontally through an approximately 200-μm-long channel to create 90° bending sections capable of trapping the RBCs to prevent them from dispersing into the rest of the migration channel. All migration channels were designed to be 12 μm wide and 3 μm high to establish only a single column of RBCs for efficient trapping while allowing active mouse, rat and human neutrophils to easily migrate through. The devices were fabricated as described above in Example 2.
(§2) For humans, 50 μL of capillary blood was collected by pricking a finger of healthy volunteers. For mice, 50 μL of capillary blood was collected by the facial vein method (Institutional animal care and use Protocol #2007N000136) requiring no anesthesia. For rats, 50 μL of venous blood was collected from the tail vein (Institutional animal care and use Protocol #2012N000034) using 1-2% Isoflurane inhalant. The blood was then pipetted into an eppendorf tube containing a mixed solution of HBSS media, heparin anti-coagulant (1.65 USP/50 μL of blood), and Hoechst stain (10 μL, 32.4 μM). The eppendorf tube was then incubated for 10 minutes at 37° C. and 5% CO2 to allow for proper staining of the nuclei.
(§3) All reagents and whole blood were pipetted into the device and there was no flow or requirement of external syringe pump. A gradient of the chemoattractant was established along the migration channels by diffusion between the chemoattractant chambers and the central loading chamber. Prior to cell loading and immediately after bonding to the well plate, donut-shaped devices were filled with the chemoattractant solution containing 25 nM of fibronectin (Sigma-Aldrich, St. Louis, Mo.). The well plate was then placed in a desiccator under vacuum to de-gas for 15 minutes to ensure proper filling of the chambers while the PDMS surface was still hydrophilic. Afterwards, the central whole-blood loading chamber and the outside region surrounding the donut were washed thoroughly in each well to establish the gradient along the migration channels. The wells of the plate were then filled with RPMI 1640 media and allowed to sit for a period of 15 minutes to generate stable chemoattractant gradients. Finally, using a gel-lading tip, 2 μL of whole blood was slowly pipetted into the central whole-blood loading chamber.
(§4) Time-lapse imaging was performed on a Nikon Eclipse Ti microscope with 10-15× magnification and a biochamber heated to 37° C. with 5% CO2 and 80% humidity. […] For each experiment, at least 50 neutrophils were manually tracked. Directionality of primed neutrophils was quantified by counting the number of cells that followed the chemotactic gradient and turned at the bifurcation toward the chemoattractant chamber as opposed to the number of cells that exited the device to the peripheral region. Cell velocities were calculated using ImageJ (NIH). Total percentage of neutrophils to migrate was estimated using a COMSOL simulation model that estimated that 30.6% of area in whole blood loading chamber from which neutrophils could migrate in experimental time to be above critical gradient concentration. For an average human experiment, this would estimate ˜277 neutrophils per well that are exposed to chemoattractant gradient.

[3] = test system: neutrophils; test: Microfluidic neutrophil chemotaxis assay, blood of a burn patient (24% TBSA) over 3 weeks; format: cell-based, human; details: for neutrophil accumulation counts versus healthy volunteer: three weeks post-burn
Experimental: Blood samples of 1 mL were collected from one burn patient suffering from 24% total body surface area (TBSA) burn. Procedures for fabricating the device, preparing the chemoattractant gradient, and performing time-lapse imaging were conducted as explained above with respect to examples 2-4.
Neutrophil chemotaxis was monitored over a 3 week treatment period. FIG. 10A is a plot of neutrophil migration counts in the attractant chamber with no chemoattractant gradient, with fMLP chemoattractant gradient [100 nM], and with LTB4 chemoattractant gradient [100 nM]. FIG. 10B is a plot of velocity [μm/min] of neutrophils migrating to LTB4 compared with fMLP over a three week period. FIG. 10C is a plot of directionality index of neutrophils migrating to LTB4 compared with fMLP. All graphs correspond to average cell counts across 16 attractant chambers.

[4] = test system: Wistar rat neutrophils; test: Inter-species microfluidic neutrophil chemotaxis from one droplet of whole blood: Wistar rat; format: cell-based; details: for percentage of neutrophils that migrated: Wistar rat whole blood
Experimental: as §1, §2
All reagents and whole blood were pipetted into the device and there was no flow or requirement of external syringe pump. A gradient of the chemoattractant was established along the migration channels by diffusion between the chemoattractant chambers and the central loading chamber. Prior to cell loading and immediately after bonding to the well plate, donut-shaped devices were filled with the chemoattractant solution containing 25 nM of fibronectin (Sigma-Aldrich, St. Louis, Mo.). The well plate was then placed in a desiccator under vacuum to de-gas for 15 minutes to ensure proper filling of the chambers while the PDMS surface was still hydrophilic. […]
Time-lapse imaging was performed on a Nikon Eclipse Ti microscope with 10-15× magnification and a biochamber heated to 37° C. with 5% CO2 and 80% humidity. […] Directionality of primed neutrophils was quantified by counting the number of cells that followed the chemotactic gradient and turned at the bifurcation toward the chemoattractant chamber as opposed to the number of cells that exited the device to the peripheral region. Cell velocities were calculated using ImageJ (NIH). […]

[5] = test system: human neutrophils; test: Inter-species microfluidic neutrophil chemotaxis from one droplet of whole blood: human; format: cell-based; details: for percentage of neutrophils that migrated: 2 μL whole blood
Experimental: as §1, §2, §3, §4

[6] = 1 week after burn, 100 nM gradient, versus healthy volunteer

fibronectin
effect of inclusion in the chemoattractant solution on final neutrophil counts migrating towards fMLP ([1]; 25 nM, pin prick and venous blood): does not appear to change final neutrophil counts

CCCCC/C=C\C[C@@H](O)/C=C/C=C/C=C\[C@@H](O)CCCC(=O)O [LTB4, Leukotriene B4]
percentage of neutrophils that migrated ([2]; C57BL/6 mouse whole blood): 52.7±24%
directionality of Sv129S6 mouse neutrophils compared with humans [2]: comparable
percentage of neutrophils that migrated ([2]; Sv129S6 mouse whole blood): 99.5±13%
neutrophil accumulation counts versus healthy volunteer [3]: in the normal range
reduction in neutrophil velocity ([3]; two weeks post-burn): 40%
percentage of neutrophils that migrated [4]: 2.8±1.1%
neutrophils recruited from finger prick whole blood (count) ([1]; 100 nM gradient, after 200 min): 39±12 cells/device
neutrophil velocity ([1]; finger prick whole blood): 20±7 μm/min
percentage of neutrophils that migrated [5]: 54.0±5.6%

CSCC[C@H](NC=O)C(=O)N[C@@H](CC(C)C)C(=O)N[C@@H](Cc1ccccc1)C(=O)O [fMLP, N-formyl-methionyl-leucyl-phenylalanine]
directional index of neutrophils ([2]; C57BL/6 mouse): 0.61±0.07
velocity of neutrophils towards the chemoattractant ([2]; C57BL/6 mouse): 13±7.4 μm/min
velocity of C57BL/6 neutrophils, fold lower than Sv129S6, rat or human ([2]; C57BL/6 mouse versus Sv129S6, rat, human): ~2.5 fold
directional index of neutrophils ([2]; Sv129S6 mouse): 0.82±0.06
velocity of neutrophils towards the chemoattractant ([2]; Sv129S6 mouse): 19.7±8.7 μm/min
reduction in directionality [3, 6]: 50%
reduction in neutrophil velocity [3, 6]: 75%
neutrophil accumulation counts versus healthy volunteer [3]: lower than the average healthy volunteer count
number of cells accumulating, above the normal healthy volunteer range ([3]; two weeks post burn, patient had fever): 15%
reduction in neutrophil velocity ([3]; two weeks post-burn): 60%
percentage of neutrophils that migrated [4]: 10.9±8.5%
directional index of neutrophils ([4]; rat): 0.62±0.12
velocity of neutrophils towards the chemoattractant ([4]; rat): 26.2±5.9 μm/min
neutrophils recruited from finger prick whole blood (count) ([1]; 100 nM gradient, after 200 min): 86±7 cells/device
neutrophil accumulation numbers ([1]; 100 nM gradient, after 3.5 hours, venous, finger prick and isolated neutrophil sources): around 135±20 cells/device
average neutrophil migration counts in 6 separate devices ([1]; 100 nM gradient, finger prick whole blood of one healthy donor, after 200 min): 83±12 cells
neutrophil migration counts per chamber, average of healthy donors ([1]; 100 nM gradient, finger prick whole blood, after 200 min, 5 out of 7 donors clustered around it): 92±35 cells
time until neutrophils began migrating towards the gradient ([1]; 100 nM gradient, venous and finger prick whole blood and isolated neutrophils): ≤ 20 min
neutrophil count recruited relative to LTB4 ([1]; 100 nM gradients, finger prick whole blood, 200 min): two-fold higher count
neutrophil velocity ([1]; finger prick whole blood): 19 ±6 μm/min
directional index of neutrophils [5]: 0.85±0.06
velocity of neutrophils towards the chemoattractant [5]: 23.4±5.4 μm/min
percentage of neutrophils that migrated [5]: 55.8±19.8%

B1: C5a: the protein fragment C5a, neutrophil attractant (protein, UniProt P01031 678-751, looked up)
C5a anaphylatoxin: TLQKKIEEIAAKYKHSVVKKCCYDGACVNNDETCEQRAARISLGPRCIKAFTECCVVASQLRANISHKDMQLGR
modifications: C5a anaphylatoxin
notes: the protein fragment C5a, neutrophil attractant
percentage of neutrophils activated ([2]; Sv129S6 mouse): 18.3±3%
directionality of Sv129S6 mouse neutrophils compared with humans [2]: lower than in humans
migration pattern of activated mouse neutrophils ([2]; mouse): random migration
percentage of neutrophils that migrated in response to the chemoattractant in the FCC ([2]; mouse (Sv129S6)): 1±0.8%
percentage of neutrophils activated [5]: 63.3±7.6%
percentage of neutrophils that migrated in response to the chemoattractant in the FCC [5]: 26.8±5.9%

Reference: US20200292528A1, “CELL CHEMOTAXIS ASSAYS” (The General Hospital Corporation, priority 2013, published 2020)
